Laboratory results taken from US12371428B2 (Exelixis, Inc., priority 2019, dated 2025).

Experiments:
Assay type in all cases: cell-based
[1] = molecular target: KDR (phospho-KDR, VEGF165-stimulated HUVEC cells) (Homo sapiens (Human), UniProt P35968); assay: KDR autophosphorylation ELISA in HUVEC cells (Example G); conditions: cellular activity; KDR autophosphorylation ELISA in HUVEC cells
In short: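 HUVEC cells, serum-starved 24 h, were treated 1 h with an 8-point compound dilution (0.3% DMSO) and then stimulated with 100 ng/mL VEGF165 for 5 min. Phospho-KDR in lysates was quantified by sandwich ELISA against a phospho-KDR standard. IC50 from a 4-parameter logistic fit, normalised between stimulated DMSO and unstimulated controls.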

[2] = molecular target: Met (phospho-Met, HGF-stimulated PC-3 prostate cancer cells) (Homo sapiens (Human), UniProt P08581); assay: Met autophosphorylation ELISA in PC-3 cells (Example F); conditions: cellular activity; Met autophosphorylation ELISA in PC-3 cells; read-out: c-Met IC50
Chain of Met (phospho-Met, HGF-stimulated PC-3 prostate cancer cells) (P08581 25-1390): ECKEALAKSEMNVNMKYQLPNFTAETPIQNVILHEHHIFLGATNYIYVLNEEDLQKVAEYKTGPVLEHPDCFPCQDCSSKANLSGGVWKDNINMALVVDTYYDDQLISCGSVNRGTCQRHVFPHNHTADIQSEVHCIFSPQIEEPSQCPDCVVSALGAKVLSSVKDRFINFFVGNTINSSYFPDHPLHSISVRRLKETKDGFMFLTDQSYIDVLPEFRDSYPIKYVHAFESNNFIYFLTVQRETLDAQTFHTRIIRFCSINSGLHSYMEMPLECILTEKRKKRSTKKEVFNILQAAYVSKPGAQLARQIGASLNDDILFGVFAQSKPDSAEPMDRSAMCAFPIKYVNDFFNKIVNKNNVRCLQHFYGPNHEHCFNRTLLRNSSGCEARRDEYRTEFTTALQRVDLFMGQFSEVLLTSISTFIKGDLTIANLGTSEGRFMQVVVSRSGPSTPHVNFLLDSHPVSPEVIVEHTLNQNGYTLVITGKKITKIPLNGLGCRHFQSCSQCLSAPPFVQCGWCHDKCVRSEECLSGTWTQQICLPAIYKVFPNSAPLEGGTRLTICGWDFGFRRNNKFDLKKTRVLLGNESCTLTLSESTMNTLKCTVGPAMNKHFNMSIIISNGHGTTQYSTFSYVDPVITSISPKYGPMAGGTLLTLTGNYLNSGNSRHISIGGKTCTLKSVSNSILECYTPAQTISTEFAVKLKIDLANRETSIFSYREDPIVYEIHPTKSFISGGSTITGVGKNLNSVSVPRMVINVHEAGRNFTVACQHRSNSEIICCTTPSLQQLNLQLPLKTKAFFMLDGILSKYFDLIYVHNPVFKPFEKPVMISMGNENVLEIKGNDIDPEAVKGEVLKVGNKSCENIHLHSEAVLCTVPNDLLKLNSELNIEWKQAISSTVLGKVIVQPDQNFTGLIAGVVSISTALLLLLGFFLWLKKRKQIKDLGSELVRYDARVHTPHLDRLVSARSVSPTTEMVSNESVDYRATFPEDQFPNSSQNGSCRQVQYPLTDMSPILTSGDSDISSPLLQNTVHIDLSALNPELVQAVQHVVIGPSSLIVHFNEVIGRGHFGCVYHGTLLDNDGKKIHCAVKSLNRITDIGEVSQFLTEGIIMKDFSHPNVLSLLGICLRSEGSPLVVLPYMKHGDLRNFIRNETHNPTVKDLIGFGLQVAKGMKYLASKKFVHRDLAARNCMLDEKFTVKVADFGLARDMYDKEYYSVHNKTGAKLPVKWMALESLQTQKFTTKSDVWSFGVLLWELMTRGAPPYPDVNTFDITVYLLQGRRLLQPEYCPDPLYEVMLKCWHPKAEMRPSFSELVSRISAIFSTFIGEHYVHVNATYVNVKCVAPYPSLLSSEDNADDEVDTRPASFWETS
In short: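 IC50 values derive from a 4-parameter logistic fit of phospho-Met (panTyr) sandwich ELISA signals in PC-3 lysates, scaled between DMSO and reference-inhibitor wells. Cells, starved 3 h in serum-free medium, had 1 h compound exposure (8 doses, 0.3% DMSO) before 10 min stimulation with 100 ng/mL HGF.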

[3] = molecular target: Mer (phospho-Mer, MERTK-transfected 293A cells) (Homo sapiens (Human), UniProt Q12866); assay: Mer autophosphorylation ELISA in transient transfected 293A cells (Example H); conditions: cellular activity; Mer autophosphorylation ELISA in transient transfected 293A cells
Chain of Mer (phospho-Mer, MERTK-transfected 293A cells) (Q12866 21-999): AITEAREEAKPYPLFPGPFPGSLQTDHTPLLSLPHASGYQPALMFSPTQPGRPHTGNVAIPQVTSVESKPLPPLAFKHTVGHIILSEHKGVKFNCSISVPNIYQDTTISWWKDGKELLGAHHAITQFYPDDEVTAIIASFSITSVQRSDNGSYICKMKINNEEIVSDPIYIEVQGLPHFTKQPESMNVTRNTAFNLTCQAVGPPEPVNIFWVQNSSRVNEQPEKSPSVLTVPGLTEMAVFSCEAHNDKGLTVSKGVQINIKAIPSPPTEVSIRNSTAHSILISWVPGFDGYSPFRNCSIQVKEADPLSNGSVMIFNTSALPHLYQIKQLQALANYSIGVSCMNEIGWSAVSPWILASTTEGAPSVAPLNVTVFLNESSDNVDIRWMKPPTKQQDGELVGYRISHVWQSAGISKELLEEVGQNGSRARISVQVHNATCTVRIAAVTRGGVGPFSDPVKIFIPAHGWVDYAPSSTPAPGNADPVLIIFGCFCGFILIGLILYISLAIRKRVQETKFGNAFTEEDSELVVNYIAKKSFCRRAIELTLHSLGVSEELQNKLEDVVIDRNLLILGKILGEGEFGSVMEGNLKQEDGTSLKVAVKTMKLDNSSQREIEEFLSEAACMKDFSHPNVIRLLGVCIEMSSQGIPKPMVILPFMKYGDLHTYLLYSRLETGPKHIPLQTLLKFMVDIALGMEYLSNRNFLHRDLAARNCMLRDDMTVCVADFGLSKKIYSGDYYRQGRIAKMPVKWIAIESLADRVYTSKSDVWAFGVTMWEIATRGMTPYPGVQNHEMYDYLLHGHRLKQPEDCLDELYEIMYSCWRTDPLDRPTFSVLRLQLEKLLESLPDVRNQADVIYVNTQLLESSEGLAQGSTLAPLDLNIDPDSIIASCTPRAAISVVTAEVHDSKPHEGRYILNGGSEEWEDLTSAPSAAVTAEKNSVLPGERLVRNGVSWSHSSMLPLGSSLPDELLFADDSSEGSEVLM
In short: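 Human MERTK transiently transfected into 293A cells; compounds as 8-point dose curve in serum-free medium (0.3% DMSO final), 1 h. Lysates assayed by phospho-Mer sandwich ELISA against phospho-Mer standard; DMSO = 100%, reference inhibitor = 0% activity; IC50 from 4-parameter logistic fit.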

Chain of KDR (phospho-KDR, VEGF165-stimulated HUVEC cells) (P35968 20-1356): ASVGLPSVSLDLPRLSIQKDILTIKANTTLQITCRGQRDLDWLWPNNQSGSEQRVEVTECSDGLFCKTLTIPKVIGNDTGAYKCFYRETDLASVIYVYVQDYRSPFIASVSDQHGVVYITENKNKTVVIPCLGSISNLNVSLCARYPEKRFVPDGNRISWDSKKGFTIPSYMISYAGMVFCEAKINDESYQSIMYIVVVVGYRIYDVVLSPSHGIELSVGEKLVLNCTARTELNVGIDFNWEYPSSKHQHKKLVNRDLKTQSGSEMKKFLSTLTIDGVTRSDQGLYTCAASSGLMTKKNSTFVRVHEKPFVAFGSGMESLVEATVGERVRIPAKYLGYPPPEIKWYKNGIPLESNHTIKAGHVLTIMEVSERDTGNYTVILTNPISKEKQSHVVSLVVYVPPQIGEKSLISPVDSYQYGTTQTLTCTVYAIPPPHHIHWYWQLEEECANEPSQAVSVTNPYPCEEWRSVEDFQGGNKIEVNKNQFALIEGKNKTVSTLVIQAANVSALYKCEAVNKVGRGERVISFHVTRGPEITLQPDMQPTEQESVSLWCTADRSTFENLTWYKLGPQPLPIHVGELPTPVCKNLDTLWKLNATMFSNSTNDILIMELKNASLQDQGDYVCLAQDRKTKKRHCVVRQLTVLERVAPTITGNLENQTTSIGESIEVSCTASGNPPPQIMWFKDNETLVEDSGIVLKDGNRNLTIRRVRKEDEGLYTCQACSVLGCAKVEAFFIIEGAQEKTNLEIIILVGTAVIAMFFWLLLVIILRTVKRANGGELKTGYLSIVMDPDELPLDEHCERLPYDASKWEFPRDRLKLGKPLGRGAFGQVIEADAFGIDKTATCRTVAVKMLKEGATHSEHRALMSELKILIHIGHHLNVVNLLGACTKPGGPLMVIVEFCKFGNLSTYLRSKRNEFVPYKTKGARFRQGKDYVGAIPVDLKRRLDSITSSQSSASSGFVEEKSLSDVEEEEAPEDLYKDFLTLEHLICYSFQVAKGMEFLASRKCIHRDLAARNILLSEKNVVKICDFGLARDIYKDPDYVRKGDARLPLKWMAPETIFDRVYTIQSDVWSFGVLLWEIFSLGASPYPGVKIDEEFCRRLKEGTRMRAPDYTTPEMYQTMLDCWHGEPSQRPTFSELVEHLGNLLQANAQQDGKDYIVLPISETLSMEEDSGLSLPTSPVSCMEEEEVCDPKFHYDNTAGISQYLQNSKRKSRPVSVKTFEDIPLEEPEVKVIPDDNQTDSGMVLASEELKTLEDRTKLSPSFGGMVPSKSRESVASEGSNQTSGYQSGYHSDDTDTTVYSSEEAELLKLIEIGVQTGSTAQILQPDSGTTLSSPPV

IC50 [1] [nM]	IC50 [2] [nM]	IC50 [3] [nM]	SMILES
100 to 300	< 100	< 100	COc1cc2nccc(Oc3ccc(NC(=O)c4c(C)n(C)c(C)c(-c5ccc(F)cc5)c4=O)cc3F)c2nc1OC [Compound 511, N-[4-[(6,7-dimethoxy-1,5-naphthyridin-4-yl)oxy]-3-fluorophenyl]-5-(4-fluorophenyl)-1,2,6-trimethyl-4-oxopyridine-3-carboxamide]
< 100	< 100	< 100	COc1cc2nccc(Oc3ccc(NC(=O)c4nn(C)c(C)c(-c5ccc(F)cc5C)c4=O)cc3F)c2nc1OC [Compound 512, N-[4-[(6,7-dimethoxy-1,5-naphthyridin-4-yl)oxy]-3-fluorophenyl]-5-(4-fluoro-2-methylphenyl)-1,6-dimethyl-4-oxopyridazine-3-carboxamide]
< 100	< 100	< 100	COc1cnc2c(Oc3ccc(NC(=O)c4nn(C)c(C)c(-c5ccc(F)cc5C)c4=O)cc3F)ccnc2c1 [Compound 513, N-[3-fluoro-4-[(7-methoxy-1,5-naphthyridin-4-yl)oxy]phenyl]-5-(4-fluoro-2-methylphenyl)-1,6-dimethyl-4-oxopyridazine-3-carboxamide]
< 100	< 100	< 100	COc1cnc2c(Oc3ccc(NC(=O)c4nn(C)c(C)c(-c5ccc(F)cc5C)c4=O)cc3)ccnc2c1 [Compound 514, 5-(4-fluoro-2-methylphenyl)-N-[4-[(7-methoxy-1,5-naphthyridin-4-yl)oxy]phenyl]-1,6-dimethyl-4-oxopyridazine-3-carboxamide]
< 100	< 100	< 100	COc1cnc2c(Oc3ccc(NC(=O)c4nnc(C)c(-c5ccc(F)cc5)c4OC)cc3)ccnc2c1 [Compound 515, 5-(4-fluorophenyl)-4-methoxy-N-[4-[(7-methoxy-1,5-naphthyridin-4-yl)oxy]phenyl]-6-methylpyridazine-3-carboxamide]
100 to 300	< 100	< 100	COCc1nc(C)c(-c2ccc(F)cc2C)c(O)c1C(=O)Nc1ccc(Oc2ccnc3ccc(OC)nc23)cc1 [Compound 516, 5-(4-fluoro-2-methylphenyl)-4-hydroxy-2-(methoxymethyl)-N-[4-[(6-methoxy-1,5-naphthyridin-4-yl)oxy]phenyl]-6-methylpyridine-3-carboxamide]
< 100	< 100	< 100	COc1cc2nccc(Oc3ccc(NC(=O)c4nn(C)c(C)c(-c5ccc(F)cc5C)c4=O)cc3)c2nc1OC [Compound 517, N-[4-[(6,7-dimethoxy-1,5-naphthyridin-4-yl)oxy]phenyl]-5-(4-fluoro-2-methylphenyl)-1,6-dimethyl-4-oxopyridazine-3-carboxamide]
< 100	< 100	< 100	COc1cc2nccc(Oc3ccc(NC(=O)c4c(C)nc(C)c(-c5ccc(F)cc5CO)c4O)cc3F)c2nc1OC [Compound 518, N-[4-[(6,7-dimethoxy-1,5-naphthyridin-4-yl)oxy]-3-fluorophenyl]-5-[4-fluoro-2-(hydroxymethyl]phenyl]-4-hydroxy-2,6-dimethylpyridine-3-carboxamide]
< 100	< 100	< 100	COc1cc2nccc(Oc3ccc(NC(=O)c4cc(C)nn(-c5ccc(F)cc5)c4=O)cc3F)c2nc1OC [Compound 519, N-[4-[(6,7-dimethoxy-1,5-naphthyridin-4-yl)oxy]-3-fluorophenyl]-2-(4-fluorophenyl)-6-methyl-3-oxopyridazine-4-carboxamide]
< 100	< 100	< 100	COc1cc2nccc(Oc3ccc(NC(=O)c4cc(C)nn(-c5ccc(F)cc5)c4=O)cc3)c2nc1OC [Compound 520, N-[4-[(6,7-dimethoxy-1,5-naphthyridin-4-yl)oxy]phenyl]-2-(4-fluorophenyl)-6-methyl-3-oxopyridazine-4-carboxamide]
> 300	100 to 300	> 300	COc1cnc2c(Oc3ccc(NC(=O)c4cc(C)nn(-c5ccc(F)cc5)c4=O)cc3F)ccnc2c1 [Compound 521, N-[3-fluoro-4-[(7-methoxy-1,5-naphthyridin-4-yl)oxy]phenyl]-2-(4-fluorophenyl)-6-methyl-3-oxopyridazine-4-carboxamide]
> 300	< 100	> 300	COc1cnc2c(Oc3ccc(NC(=O)c4cc(C)nn(-c5ccc(F)cc5)c4=O)cc3)ccnc2c1 [Compound 522, 2-(4-fluorophenyl)-N-[4-[(7-methoxy-1,5-naphthyridin-4-yl)oxy]phenyl]-6-methyl-3-oxopyridazine-4-carboxamide]
> 300	< 100	< 100	COc1cc2nccc(Oc3ccc(NC(=O)c4c(C)n(C)c(C)c(-c5ccc(F)cc5)c4=O)cc3)c2nc1OC [Compound 523, N-[4-[(6,7-dimethoxy-1,5-naphthyridin-4-yl)oxy]phenyl]-5-(4-fluorophenyl)-1,2,6-trimethyl-4-oxopyridine-3-carboxamide]
100 to 300	< 100	< 100	COc1cc2nccc(Oc3ccc(NC(=O)c4c(C)c(C)nn(-c5ccc(F)cc5)c4=O)cc3F)c2nc1OC [Compound 524, N-[4-[(6,7-dimethoxy-1,5-naphthyridin-4-yl)oxy]-3-fluorophenyl]-2-(4-fluorophenyl)-5,6-dimethyl-3-oxopyridazine-4-carboxamide]
< 100	< 100	< 100	COCc1nc(C)c(-c2ccc(F)cc2)c(O)c1C(=O)Nc1ccc(Oc2ccnc3ccc(OC)cc23)c(F)c1 [Compound 525, N-[3-fluoro-4-(6-methoxyquinolin-4-yl)oxyphenyl]-5-(4-fluorophenyl)-4-hydroxy-2-(methoxymethyl)-6-methylpyridine-3-carboxamide]
< 100	< 100	< 100	CCc1nc(C)c(-c2ccc(F)cc2C)c(O)c1C(=O)Nc1ccc(Oc2ccnc3ccc(OC)nc23)cc1 [Compound 526, 2-ethyl-5-(4-fluoro-2-methylphenyl)-4-hydroxy-N-[4-[(6-methoxy-1,5-naphthyridin-4-yl)oxy]phenyl]-6-methylpyridine-3-carboxamide]
< 100	< 100	< 100	COc1cnc2c(Oc3ccc(NC(=O)c4ccnn(-c5ccc(F)cc5C)c4=O)cc3)ccnc2c1 [Compound 530, 2-(4-fluoro-2-methylphenyl)-N-[4-[(7-methoxy-1,5-naphthyridin-4-yl)oxy]phenyl]-3-oxopyridazine-4-carboxamide]
> 300	< 100	< 100	COc1cc2nccc(Oc3ccc(NC(=O)c4cnc(SC(C)C)n(-c5ccc(F)cc5)c4=O)cc3)c2cc1OC [Compound 539, N-[4-(6,7-dimethoxyquinolin-4-yl)oxyphenyl]-1-(4-fluorophenyl)-6-oxo-2-propan-2-ylsulfanylpyrimidine-5-carboxamide]
< 100	< 100	< 100	COc1cc2nccc(Oc3ccc(NC(=O)c4cnc(C)c(-c5ccc(F)cc5)c4O)cc3F)c2nc1C [Compound 541, N-[3-fluoro-4-[(7-methoxy-6-methyl-1,5-naphthyridin-4-yl)oxy]phenyl]-5-(4-fluorophenyl)-4-hydroxy-6-methylpyridine-3-carboxamide]
< 100	< 100	< 100	COc1cc2nccc(Oc3cc(F)c(NC(=O)c4cnc(C)c(-c5ccc(F)cc5)c4O)cc3F)c2nc1C [Compound 542, N-[2,5-difluoro-4-[(7-methoxy-6-methyl-1,5-naphthyridin-4-yl)oxy]phenyl]-5-(4-fluorophenyl)-4-hydroxy-6-methylpyridine-3-carboxamide]
100 to 300	< 100	< 100	CNc1nccc2c(Oc3ccc(NC(=O)c4cnc(C)n(-c5ccc(F)cc5)c4=O)cc3)ccnc12 [Compound 543, 1-(4-fluorophenyl)-2-methyl-N-[4-[[8-(methylamino)-1,7-naphthyridin-4-yl)oxy]phenyl]-6-oxopyrimidine-5-carboxamide]
< 100	< 100	< 100	COc1cc2nccc(Oc3ccc(NC(=O)c4cnc(COC(C)=O)c(-c5ccc(F)cc5)c4O)cc3F)c2nc1OC [Compound 544, [5-[[4-[(6,7-dimethoxy-1,5-naphthyridin-4-yl)oxy]-3-fluorophenyl]carbamoyl]-3-(4-fluorophenyl)-4-hydroxypyridin-2-yl]methyl acetate]
< 100	< 100	< 100	Cc1ccc(C(=O)Nc2ccc(Oc3ccnc4cc(O)cnc34)c(F)c2)c(=O)n1-c1ccc(F)cc1 [Compound 551, N-[3-Fluoro-4-[(7-hydroxy-1,5-naphthyridin-4-yl)oxy]phenyl]-1-(4-fluorophenyl)-6-methyl-2-oxopyridine-3-carboxamide]
